{
  "source": "patent US20080318892A1",
  "about": "“METHODS AND FORMULATIONS FOR PROTECTING CELLS, AND FOR TREATING DISEASES AND CONDITIONS BY OPTIMIZING THE INTRACELLULAR CONCENTRATION OF NAD” (priority 2007, published 2008)",
  "key": {"[1]": {"system": "HITC6 SMCs", "test": "Senescence-associated beta-galactosidase activity / senescence-free survival", "type": "cell-based, human", "experimental": "Senescence-associated β-Galatosidase Activity Assay. SMCs on glass coverslips at approximately 70% confluence were fixed in 2% formaldehyde/0.2% glutaraldehyde in PBS for 3 minutes and incubated with X-gal-containing reaction mixture, as previously described (Dimri, 1995). Washed cells were stained with Hoechst 33258 (2.5 μg/ml) and the proportion of senescence-associated β-galactosidase (SA β-Gal)-positive cells quantified from 10 microscope fields of view (Olympus BX51, ×20 objective, approximately 1200 cells). Senescence-free survival was determined using Kaplan-Meier analysis of survival vs. replicative age.\nSenescence-associated Beta-galactosidase Activity. Senescence-associated beta-galactosidase (SA-β-gal) activity was determined as previously described (Dimri et al, 1995). Briefly, SMCs were fixed in PBS containing 2% formaldehyde/0.2% glutaraldehyde for 3 min at room temperature. Fixed cells were then incubated for 4-6 h at 37° C. with SA-β-gal stain solution containing 150 mM NaCl, 2 mM MgCl, 40 mM citrate, 5 mM potassium ferrocyanide, 5 mM potassium ferricyanide, and 1 mg/ml of 5-bromo-4-chloro-3-indolyl-β-D-galactopyranoside (X-gal) (Invitrogen, Carlsbad, Calif., USA), at pH 6.0. SMCs were counterstained with 2.5 μg/ml Hoechst 33258 to detect cell nuclei. The proportion of SA-β-gal activity positive cells was quantified using light and fluorescence microscopy (Olympus BX51, Center Valley, Pa., USA)."}, "[2]": {"system": "SIRT1", "test": "Western blot of SIRT1 protein expression in SMCs", "type": "cell-based, human", "conditions": "PBEF overexpression; p=0.02", "experimental": "Western Blot and Immunoprecipitation Analysis. Protein expression was assessed by Western blot analysis with chemiluminescence detection, as previously described (Rocnik, 2002). PBEF was detected using a rabbit polyclonal anti-human PBEF/Pre-B-cell colony enhancing factor antibody (Bethyl Laboratories, Montgomery, Tex.). SIRT1 was detected using a rabbit polyclonal anti-SIRT1 antibody (Abcam, Cambridge, Mass.) and p53 and α-tubulin were detected with monoclonal antibodies (CO-1, Santa Cruz, Calif. and Clone B-5-1-1, Sigma, Oakville, ON, respectively). Cytoplasmic p53 was similarly assessed following cell fractionation (NucBuster, Novagen Minneapolis, Minn.). Identification of p53 that underwent NAD^+-dependent removal of an acetyl group on residue K382 was determined by pretreating SMCs for 2 h with 5 μM trichostatin A (TSA), immunoprecipitating p53 from the cell lysate with a goat polyclonal antibody (R&D Systems, Minneapolis, Minn.), and immunoblotting using a rabbit polyclonal anti-acetylated p53 (K382) antibody (American Proteomics, Carlsbad, Calif.) and HRP-labelled donkey anti-rabbit IgG antibody (Amersham, Piscataway, N.J.).\nWestern Blot Analysis. Protein expression was assessed by Western blot analysis of confluent cultured SMCs, as previously described (Rocnik et al., 2002). […] Signal was detected by chemiluminescence (Pierce, Rockford, Ill., USA)."}, "[3]": {"system": "HDAC", "test": "Histone deacetylase (HDAC) assay in SMC lysates with [3H]-acetylated histone H4 peptide", "type": "biochemical, human", "conditions": "HITC6-PBEF SMC lysates, vehicle", "experimental": "HITC6 SMC's were stably transduced with pQXCIP-PURO or pQXCIP-PBEF-PURO and HDAC activity determined in cell lysates (25 μg of protein), using [^3H]histone H4 peptide as the substrate. The reactions were quenched by acid hydrolysis and catalytically released [^3H]-acetate was extracted in ethyl acetate.\nHistone Deacetylase (HDAC) Assays were employed. Histone H4 peptide (Upstate) was labeled with [^3H]-acetyl Coenzyme A (ICN) using PCAF histone acetylase. Cell lysates were harvested using Passive Lysis Buffer (Promega) and 25 μg of protein was incubated at 37° C. for 6 hours with 50,000 cpm of [^3H]-acetyl histone and 1 mM PMSF in HDAC Assay Buffer (Upstate). Released [^3H]-acetate was extracted with ethyl acetate (31) and counted on a Beckman LS3801 scintillation counter."}, "[4]": {"system": "HITB5 SMC's", "test": "SMC proliferation (cell accumulation over 11 days)", "type": "cell-based, human", "conditions": "PBEF-overexpressing HITB5 SMCs, 5% serum, p<0.01 vs EGFP control", "experimental": "(§1) Cell Proliferation, DNA Synthesis, and Apoptosis were also evaluated. To assess SMC proliferation, cells were plated at a density of 3000 cells per cm^2 and cultured in M199 containing 5% FBS. Triplicate wells were harvested at the designated times and counted using a hemacytometer. To quantify DNA synthesis, cells in log-phase growth were incubated for 12 hours with [^3H]thymidine (10 μCi/mL) and TCA-precipitable counts determined as described (5). Thymidine incorporation was expressed relative to DNA content, quantified by spectrofluorimetry of an aliquot of cell lysate incubated with 500 μg/ml Hoechst 33258. Apoptosis was assessed in SMCs seeded on glass coverslips by in situ end-labeling of DNA fragments using terminal deoxynucleotide transferase and fluorescein 12-dUTP (Promega) (5). Cells were fixed with 4% paraformaldehyde and counterstained with Hoechst 33258."}, "[5]": {"system": "HITB5 SMC's", "test": "Apoptosis by TUNEL", "type": "cell-based, human", "conditions": "PBEF-overexpressing HITB5 SMCs; p<0.01", "experimental": "as §1"}, "[6]": {"system": "fibroblasts derived from a subject with HGPS", "test": "Replicative lifespan of HGPS fibroblasts", "type": "cell-based, human", "conditions": "HGPS fibroblasts transduced with Nampt cDNA", "experimental": "Cell Culture. Experiments were performed using primary human vascular SMCs derived by outgrowth from fragments of internal thoracic artery and the HITC6 SMC clonal line, also originally generated from the human internal thoracic artery (Li, 2001). Derman fibroblasts from an individual with Hutchinson-Gilford Progeria Syndrome (HGPS) were obtained from Coreill Cell Repository.\nTo quantify replication, cells were plated at 4500 cells/cm^2 and growth medium with 10% FBS was changed every two days until cells reached 90-95% confluence. Harvested cells were counted from triplicate plates and the number of population doublings was calculated based on: [log10(number of cells harvested)−log10(number of cells seeded)]/[…] (Fukuhara, 2005). Population growth curves were compared using both nonlinear regression and two-way analysis of variance."}},
  "data": [
    {"substance": "PBEF: 52-55 kD protein, rate-limiting enzyme for NAD+ biosynthesis from nicotinamide; tested by retroviral cDNA overexpression in cells", "values": [
      {"measurement": "senescence-free survival (Kaplan-Meier) vs vector-infected cells", "setting": "[1]; PBEF-overexpressing SMCs, p<0.0001", "result": "markedly extended"},
      {"measurement": "reduction in senescent SMCs", "setting": "[1]; late-passage (37th) PBEF-overexpressing SMCs, p=0.003", "result": "19±2", "unit": "%"},
      {"measurement": "abundance of SIRT1 protein", "setting": "[2]", "result": "1.3±0.3", "unit": "fold"},
      {"measurement": "total HDAC activity vs HITC6-Vector SMC's", "setting": "[3]", "result": "significantly greater"},
      {"measurement": "doubling time", "setting": "[4]", "result": 5.4, "unit": "days"},
      {"measurement": "proportion of apoptotic SMC's relative to HITB5-EGFP SMC's", "setting": "[5]", "result": "approximately half"},
      {"measurement": "cell lifespan extension", "setting": "[6]", "result": "also seen"}
    ]}
  ]
}
